#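 The compound was tested at five concentrations on cells cultured in 96-well plates, with a 48-hour exposure period. GI50 marks 50% less growth. TGI denotes the concentration required for complete inhibition of growth.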
# What was measured:
# Assay in all cases: NCI tumour cell line growth inhibition, 48 h
# DU-145 prostate = test system: DU-145 prostate
# NCI-H460 lung = test system: NCI-H460 lung
# A549 NSCLC = test system: A549 NSCLC
# COLO 205 colon = test system: COLO 205 colon
# U251 CNS = test system: U251 CNS
# SN12C renal = test system: SN12C renal
# OVCAR-4 ovarian = test system: OVCAR-4 ovarian
# HCT-15 colon = test system: HCT-15 colon
# CAKI-1 renal = test system: CAKI-1 renal
# CCRF-CEM leukemia = test system: CCRF-CEM leukemia
# OVCAR-3 ovarian = test system: OVCAR-3 ovarian
# UACC-62 melanoma = test system: UACC-62 melanoma
# LOX IMVI melanoma = test system: LOX IMVI melanoma
# UACC-257 melanoma = test system: UACC-257 melanoma
# NCI-H23 lung = test system: NCI-H23 lung
# RXF 393 renal = test system: RXF 393 renal
# MDA-MB-435 = test system: MDA-MB-435
# HS 578T breast = test system: HS 578T breast
# TK-10 renal = test system: TK-10 renal
# HCC-2998 colon = test system: HCC-2998 colon
# OVCAR-5 ovarian = test system: OVCAR-5 ovarian
# IGROV1 ovarian = test system: IGROV1 ovarian
# HT29 colon = test system: HT29 colon
# MCF7 breast = test system: MCF7 breast
# HL-60(TB) leukemia = test system: HL-60(TB) leukemia
# HOP-62 NSCLC = test system: HOP-62 NSCLC
# A498 renal = test system: A498 renal
# PC-3 prostate = test system: PC-3 prostate
# SF-295 CNS = test system: SF-295 CNS
# M14 melanoma = test system: M14 melanoma
# OVCAR-8 ovarian = test system: OVCAR-8 ovarian
# HOP-92 NSCLC = test system: HOP-92 NSCLC
# UO-31 renal = test system: UO-31 renal
# SW-620 colon = test system: SW-620 colon
# MALME-3M melanoma = test system: MALME-3M melanoma
# K-562 leukemia = test system: K-562 leukemia
# SK-MEL-2 melanoma = test system: SK-MEL-2 melanoma
# NCI-H226 lung = test system: NCI-H226 lung
# SF-539 CNS = test system: SF-539 CNS
# HCT-116 colon = test system: HCT-116 colon
# T-47D breast = test system: T-47D breast
# BT-549 breast = test system: BT-549 breast
# RPMI-8226 leukemia = test system: RPMI-8226 leukemia
# EKVX NSCLC = test system: EKVX NSCLC
# NCI-H522 lung = test system: NCI-H522 lung
# SK-OV-3 ovarian = test system: SK-OV-3 ovarian
# SNB-75 CNS = test system: SNB-75 CNS
# SK-MEL-5 melanoma = test system: SK-MEL-5 melanoma
# SNB-19 CNS = test system: SNB-19 CNS
# NCI/ADR-RES ovarian = test system: NCI/ADR-RES ovarian
# SF-268 CNS = test system: SF-268 CNS
# 786-0 renal = test system: 786-0 renal
# KM12 colon = test system: KM12 colon
# ACHN renal = test system: ACHN renal
# SK-MEL-28 melanoma = test system: SK-MEL-28 melanoma
# SR leukemia = test system: SR leukemia
smiles,measurement,setting,value
N=C(N)c1ccc(-c2ccc(-c3ccccc3)s2)cc1F,GI50,DU-145 prostate,1.13 µM
same,TGI,DU-145 prostate,2.38 µM
COc1ccc2c(c1)CCC1C2CC[C@@]2(C)C1CC[C@@]2(O)CNC(=O)/C=C/c1ccc(O)c(OC)c1 (stereo not given in full),GI50,NCI-H460 lung,4.02 µM
same,TGI,NCI-H460 lung,> 100 µM
same,GI50,A549 NSCLC,22.3 µM
same,TGI,A549 NSCLC,> 100 µM
same,GI50,COLO 205 colon,14 µM
same,TGI,COLO 205 colon,35.3 µM
same,GI50,U251 CNS,19 µM
same,TGI,U251 CNS,76.6 µM
same,GI50,SN12C renal,24.3 µM
same,TGI,SN12C renal,> 100 µM
same,GI50,OVCAR-4 ovarian,14.9 µM
same,TGI,OVCAR-4 ovarian,> 100 µM
same,GI50,HCT-15 colon,11.5 µM
same,TGI,HCT-15 colon,33.1 µM
same,GI50,CAKI-1 renal,21.9 µM
same,TGI,CAKI-1 renal,> 100 µM
same,GI50,CCRF-CEM leukemia,0.932 µM
same,TGI,CCRF-CEM leukemia,> 100 µM
same,GI50,OVCAR-3 ovarian,37.5 µM
same,TGI,OVCAR-3 ovarian,> 100 µM
same,GI50,UACC-62 melanoma,12.1 µM
same,TGI,UACC-62 melanoma,34.9 µM
same,GI50,LOX IMVI melanoma,7.76 µM
same,TGI,LOX IMVI melanoma,20.5 µM
same,GI50,UACC-257 melanoma,28 µM
same,TGI,UACC-257 melanoma,80 µM
same,GI50,NCI-H23 lung,25.5 µM
same,TGI,NCI-H23 lung,> 100 µM
same,GI50,RXF 393 renal,21.1 µM
same,TGI,RXF 393 renal,78.6 µM
same,GI50,MDA-MB-435,4.95 µM
same,TGI,MDA-MB-435,> 100 µM
same,GI50,HS 578T breast,75.3 µM
same,TGI,HS 578T breast,> 100 µM
same,GI50,TK-10 renal,6.86 µM
same,TGI,TK-10 renal,> 100 µM
same,GI50,HCC-2998 colon,17.7 µM
same,TGI,HCC-2998 colon,33.7 µM
same,GI50,OVCAR-5 ovarian,45.5 µM
same,TGI,OVCAR-5 ovarian,> 100 µM
same,GI50,IGROV1 ovarian,4.66 µM
same,TGI,IGROV1 ovarian,> 100 µM
same,GI50,HT29 colon,2.8 µM
same,TGI,HT29 colon,10.8 µM
same,GI50,MCF7 breast,7.41 µM
same,TGI,MCF7 breast,> 100 µM
same,GI50,HL-60(TB) leukemia,8.46 µM
same,TGI,HL-60(TB) leukemia,> 100 µM
same,GI50,HOP-62 NSCLC,31.8 µM
same,TGI,HOP-62 NSCLC,> 100 µM
same,GI50,A498 renal,23 µM
same,TGI,A498 renal,54.5 µM
same,GI50,PC-3 prostate,12.1 µM
same,TGI,PC-3 prostate,83.8 µM
same,GI50,SF-295 CNS,28.4 µM
same,TGI,SF-295 CNS,> 100 µM
same,GI50,M14 melanoma,15.8 µM
same,TGI,M14 melanoma,53 µM
same,GI50,OVCAR-8 ovarian,38.4 µM
same,TGI,OVCAR-8 ovarian,> 100 µM
same,GI50,HOP-92 NSCLC,14.9 µM
same,TGI,HOP-92 NSCLC,60 µM
same,GI50,UO-31 renal,10.3 µM
same,TGI,UO-31 renal,> 100 µM
same,GI50,SW-620 colon,58.4 µM
same,TGI,SW-620 colon,> 100 µM
same,GI50,MALME-3M melanoma,21.3 µM
same,TGI,MALME-3M melanoma,> 100 µM
same,GI50,K-562 leukemia,12.3 µM
same,TGI,K-562 leukemia,> 100 µM
same,GI50,SK-MEL-2 melanoma,38.8 µM
same,TGI,SK-MEL-2 melanoma,> 100 µM
same,GI50,NCI-H226 lung,22.5 µM
same,TGI,NCI-H226 lung,74.6 µM
same,TGI,SF-539 CNS,19.3 µM
same,GI50,HCT-116 colon,19 µM
same,TGI,HCT-116 colon,> 100 µM
same,GI50,T-47D breast,9.12 µM
same,TGI,T-47D breast,> 100 µM
same,GI50,BT-549 breast,16.2 µM
same,TGI,BT-549 breast,75.7 µM
same,GI50,RPMI-8226 leukemia,6.47 µM
same,TGI,RPMI-8226 leukemia,53.9 µM
same,GI50,EKVX NSCLC,10.7 µM
same,TGI,EKVX NSCLC,83.7 µM
same,GI50,NCI-H522 lung,19.9 µM
same,TGI,NCI-H522 lung,> 100 µM
same,GI50,SK-OV-3 ovarian,66.1 µM
same,TGI,SK-OV-3 ovarian,> 100 µM
same,GI50,SNB-75 CNS,26.6 µM
same,TGI,SNB-75 CNS,> 100 µM
same,GI50,DU-145 prostate,36.6 µM
same,TGI,DU-145 prostate,> 100 µM
same,GI50,SK-MEL-5 melanoma,18.2 µM
same,TGI,SK-MEL-5 melanoma,46.6 µM
same,GI50,SNB-19 CNS,27.8 µM
same,TGI,SNB-19 CNS,> 100 µM
same,GI50,NCI/ADR-RES ovarian,12.5 µM
same,TGI,NCI/ADR-RES ovarian,83.4 µM
same,GI50,SF-268 CNS,20 µM
same,TGI,SF-268 CNS,> 100 µM
same,GI50,786-0 renal,23.2 µM
same,TGI,786-0 renal,> 100 µM
same,GI50,KM12 colon,4.77 µM
same,TGI,KM12 colon,> 100 µM
same,GI50,ACHN renal,17.5 µM
same,TGI,ACHN renal,46.7 µM
same,GI50,SK-MEL-28 melanoma,15.2 µM
same,TGI,SK-MEL-28 melanoma,84.4 µM
N=C(N)c1ccc(-c2ccc(-c3ccc(F)cc3)s2)cc1,GI50,SR leukemia,0.307 µM
same,TGI,SR leukemia,> 100 µM
same,GI50,DU-145 prostate,1.63 µM
same,TGI,DU-145 prostate,2.98 µM
